Measurements from ChEMBL document CHEMBL2046271, “Terpenes from Copaifera demonstrated in vitro antiparasitic and synergic activity” (J Med Chem, 2012).
Active and inactive are the calls of the source. The rule behind the calls is not given here.

Key:
Trypanosoma cruzi [1] = experiment: Antitrypanosomal activity against Trypanosoma cruzi Y epimastigotes assessed as gated cells in lower left quadrant at 400 uM after 3 hrs by propidium iodide staining-based flow cytometric analysis (reference value: 89.35%); assay type: functional
Trypanosoma cruzi [2] = experiment: Antitrypanosomal activity against Trypanosoma cruzi Y epimastigotes assessed as gated cells in lower left quadrant at 400 uM after 3 hrs by rhodamine 123 staining-based flow cytometric analysis (reference value: 2.40%); assay type: functional
Trypanosoma cruzi [3] = experiment: Antitrypanosomal activity against Trypanosoma cruzi Y epimastigotes assessed as gated cells in upper right quadrant at 400 uM after 3 hrs by rhodamine 123 staining-based flow cytometric analysis (reference value: 94.94%); assay type: functional
Trypanosoma cruzi [4] = experiment: Antitrypanosomal activity against Trypanosoma cruzi Y epimastigotes assessed as membranous vacuole formation in all body parts at compound IC50 concentration after 96 hrs by transmission electron microscopic analysis; assay type: functional, organism-based
Trypanosoma cruzi [5] = experiment: Antitrypanosomal activity against Trypanosoma cruzi Y epimastigotes assessed as organelle disorganization at compound IC50 concentration after 96 hrs by transmission electron microscopic analysis; assay type: functional, organism-based
Trypanosoma cruzi [6] = experiment: Antitrypanosomal activity against Trypanosoma cruzi Y epimastigotes after 96 hrs by neubauer chamber; assay type: functional, organism-based
Trypanosoma cruzi [7] = experiment: Antitrypanosomal activity against Trypanosoma cruzi Y epimastigotes assessed as gated cells in upper right quadrant at 400 uM after 3 hrs by propidium iodide staining-based flow cytometric analysis (reference value: 1.40%); assay type: functional
[8] = Toxicity in human RBC assessed as hemolysis after 3 hrs; assay type: cell-based, Erythrocyte; conditions: red blood cells
Trypanosoma cruzi [9] = experiment: Antitrypanosomal activity against Trypanosoma cruzi Y epimastigotes assessed as lipid peroxidation at 400 uM after 6 hrs; assay type: functional
Trypanosoma cruzi [10] = experiment: Antitrypanosomal activity against Trypanosoma cruzi Y epimastigotes assessed as gated cells in upper left quadrant at 400 uM after 3 hrs by propidium iodide staining-based flow cytometric analysis (reference value: 3.76%); assay type: functional
Trypanosoma cruzi [11] = experiment: Antitrypanosomal activity against Trypanosoma cruzi Y epimastigotes assessed as gated cells in upper left quadrant at 400 uM after 3 hrs by rhodamine 123 staining-based flow cytometric analysis (reference value: 1.54%); assay type: functional
Trypanosoma cruzi [12] = experiment: Antitrypanosomal activity against Trypanosoma cruzi Y epimastigotes assessed as gated cells in lower right quadrant at 400 uM after 3 hrs by rhodamine 123 staining-based flow cytometric analysis (reference value: 1.12%); assay type: functional
Trypanosoma cruzi [13] = experiment: Antitrypanosomal activity against Trypanosoma cruzi Y amastigotes infected in monkey LLC-MK2 cells after 96 hrs by Geimsa staining method; assay type: functional, organism-based; conditions: LLC-MK2, 96 h
[14] = Selectivity ratio of CC50 for monkey LLC-MK2 cells to IC50 for Trypanosoma cruzi Y amastigotes; assay type: ADME, cell-based; conditions: LLC-MK2 cells versus Trypanosoma cruzi Y amastigotes, read-out: Ratio CC50/IC50
Trypanosoma cruzi [15] = experiment: Antitrypanosomal activity against Trypanosoma cruzi Y infected in monkey LLC-MK2 cells assessed as reduction in number of amastigotes after 96 hrs by Geimsa staining method; assay type: functional; design: concentration or dose not given beside the values
Trypanosoma cruzi [16] = experiment: Antitrypanosomal activity against Trypanosoma cruzi Y epimastigotes assessed as gated cells in lower right quadrant at 400 uM after 3 hrs by propidium iodide staining-based flow cytometric analysis (reference value: 5.41%); assay type: functional
Trypanosoma cruzi [17] = experiment: Antitrypanosomal activity against Trypanosoma cruzi Y trymastigotes infected in monkey LLC-MK2 cells after 24 hrs by Brenner counter method; assay type: functional, organism-based; conditions: LLC-MK2, 24 h
[18] = Cytotoxicity against monkey LLC-MK2 cells after 96 hrs by sulforhodamine B assay; assay type: cell-based, Macaca mulatta; conditions: rhesus monkey
Trypanosoma cruzi [19] = experiment: Antitrypanosomal activity against Trypanosoma cruzi Y trymastigotes infected in monkey LLC-MK2 cells after 24 hrs by Brenner counter method in presence of beta-hydroxycopalic; assay type: functional
Trypanosoma cruzi [20] = experiment: Antitrypanosomal activity against Trypanosoma cruzi Y trymastigotes infected in monkey LLC-MK2 cells after 24 hrs by Brenner counter method in presence of copalic; assay type: functional
Trypanosoma cruzi [21] = experiment: Antitrypanosomal activity against Trypanosoma cruzi Y epimastigotes assessed as formation of concentric membranous vacuoles at compound IC50 concentration after 96 hrs by transmission electron microscopic analysis; assay type: functional, organism-based
Trypanosoma cruzi [22] = experiment: Antitrypanosomal activity against Trypanosoma cruzi Y epimastigotes assessed as kinetoplast disorganisation at compound IC50 concentration after 96 hrs by transmission electron microscopic analysis; assay type: functional, organism-based
Trypanosoma cruzi [23] = experiment: Antitrypanosomal activity against Trypanosoma cruzi Y epimastigotes assessed as pronounced swelling of mitochondria at compound IC50 concentration after 96 hrs by transmission electron microscopic analysis; assay type: functional, organism-based
[24] = Toxicity in human RBC assessed as hemolysis at 1552 uM after 3 hrs; assay type: cell-based, Erythrocyte; conditions: red blood cells, read-out: Activity

SMILES	Activity (Trypanosoma cruzi [1]) [%]	Activity (Trypanosoma cruzi [2]) [%]	Activity (Trypanosoma cruzi [3]) [%]	IC50 (Trypanosoma cruzi [6]) [µM]	Activity (Trypanosoma cruzi [7]) [%]	HC50 at 3 h [8] [µM]	Activity (Trypanosoma cruzi [9])	Activity (Trypanosoma cruzi [10]) [%]	Activity (Trypanosoma cruzi [11]) [%]	Activity (Trypanosoma cruzi [12]) [%]	IC50 (Trypanosoma cruzi [13]) [µM]	selectivity ratio [14]	Activity (Trypanosoma cruzi [15]) [%]	Activity (Trypanosoma cruzi [16]) [%]	EC50 (Trypanosoma cruzi [17]) [µM]	CC50 at 96 h [18] [µM]	other results
C=C1CC[C@@H]2C(C)(C)[C@@H](O)CC[C@@]2(C)[C@@H]1CC/C(C)=C/C(=O)O	2.56	2.27	73.66	41.2	24.29	125	inactive	73	24.06	0.01	1.8	17.3	40	0.15	453	31.2	Activity (Trypanosoma cruzi [4]): Active; Activity (Trypanosoma cruzi [5]): Active
C=C1CC[C@@H]2[C@](C)(CCC[C@]2(C)C(=O)O)[C@H]1CC/C(C)=C/C(=O)O [AGATHIC ACID]	14.2	2.07	84.11	86.8	32.97	1050	inactive	50.32	13.37	0.45	14.9	3.8	38	2.51	823	56.8	–
C[C@@H]1[C@H](O)[C@@H](C)/C=C/C=C/C=C/C=C/C=C/C=C/C=C/[C@H](O[C@@H]2O[C@H](C)[C@@H](O)[C@H](N)[C@@H]2O)C[C@@H]2O[C@](O)(C[C@@H](O)C[C@@H](O)[C@H](O)CC[C@@H](O)C[C@@H](O)CC(=O)O[C@H]1C)C[C@H](O)[C@H]2C(=O)O [AMPHOTERICIN B]	–	–	–	–	–	50.8	–	–	–	–	–	–	–	–	–	–	–
O=C(Cn1ccnc1[N+](=O)[O-])NCc1ccccc1 [BENZNIDAZOLE]	–	–	–	6.5	–	> 1920	–	–	–	–	19.2	32	–	–	34.5	615	fractional inhibitory concentration index (FICI) (Trypanosoma cruzi [19]): 1.01; fractional inhibitory concentration index (FICI) (Trypanosoma cruzi [20]): 0.95
C=C1CC/C=C(\C)CC[C@@H]2[C@@H]1CC2(C)C [BETA-CARYOPHYLLENE]	9.53	52.01	29.35	78.4	11.4	> 2450	30%	78.81	3.17	15.47	63.7	26.9	25	0.26	1590	1720	fractional inhibitory concentration index (FICI) (Trypanosoma cruzi [19]): 0.86; Activity (Trypanosoma cruzi [21]): Active; fractional inhibitory concentration index (FICI) (Trypanosoma cruzi [20]): 0.12; Activity (Trypanosoma cruzi [22]): Active
C=C1CC[C@@H]2C(C)(C)CCC[C@@]2(C)[C@@H]1CC/C(C)=C/C(=O)O [COPALIC ACID]	5.17	2.86	72.57	42.7	50.54	65.7	30%	43.58	24.47	0.1	1.3	30.3	48	0.71	444	39.4	Activity (Trypanosoma cruzi [23]): Active
C=C1C[C@@]23CC[C@H]4[C@@](C)(CCC[C@@]4(C)C(=O)O)[C@@H]2CC[C@@H]1C3 [KAURENOIC ACID]	22.65	4.85	91.64	167	18.53	464	inactive	45.55	2.55	0.96	16.5	4.6	38	13.27	596	76.1	–
C=C1CC[C@@H]2C(C)(C)CCC[C@@]2(C)[C@@H]1CC/C(C)=C/C(=O)OC [METHYL COPALATE]	85.91	0.66	98.49	83.3	2.25	1600	inactive	2.62	0.64	0.21	2.5	27.6	38	9.22	377	69.1	–
C=C1CC[C@@H]2[C@](C)(CCC[C@@]2(C)C(=O)O)[C@H]1CC[C@H](C)CC(=O)O [PINIFOLIC ACID]	91.66	1.02	97.96	854	0.71	> 1550	inactive	3.78	0.81	0.21	18.6	13.5	25	3.85	1630	252	hemolysis at 3 h, 1552 µM [24]: 8%
C=C1CC[C@@H]2[C@](C)(CCC[C@@]2(C)C(=O)O)[C@H]1CCc1ccoc1 [POLYALTIC ACID]	26.71	1.85	95.96	168	29.09	> 1580	inactive	16.7	1.28	0.91	28.4	2.1	38	25.8	965	60.1	–
